Patent US6458760B1, “Method for treating tissue damaged from ischemia” (Henry Ford Health System, priority 1998, dated 2002)
Non-standard residues stand in square brackets, D forms with d. Residues, ends and D or L forms follow the SMILES beside them. *: point of attachment. Phe(4-NO2) = N[CH](Cc1ccc([N+](=O)[O-])cc1)C(=O)O; Cit = NC(=O)NCCC[CH](N)C(=O)O; Cbz = O=C(OCc1ccccc1)*; CHN2 = [N-]=[N+]=C*; Bn = c1ccc(C*)cc1; tBu = CC(C)(C)*

Legend:
[1] = system: Calpain; assay: Calpain inactivation rate, fluorimetric progress curves; assay type: biochemical; conditions: second order inactivation rate constant corrected for substrate; substrate Suc-Leu-Tyr-AMC; pH 7.5, 37° C.
Description: (§1) (“Tian, et al.”) the contents of which are incorporated by reference. More specifically, the value of kobs is given by the slope of a plot of ln [P]∞−[p]t versus t (time). The apparent second-order rate contact for inactivation, k2app was calculated as kobs/[I]. The inactivation-rates (kobs) in the presence of substrate and for different inhibitor concentrations for calpain, cathepsin B and cathepsin L are determined according to the method of Tian, et al. However, k2app is corrected for the presence of substrate (s) to give the second order rate constant k^12app, calculated as k^12app=k2app (1+[s]/Km).
Calpain was assayed fluorimetrically in 1 ml of 50 mM Tris/acetate buffer, pH 7.5, containing 5 mM CaCl2, 2.5 mM DTT(dithiothreitol), 0.1% Triton X-100 at 37° C., using 2.5×10^−4 M Suc-Leu-Tyr-aminomethylcoumarin (AMC) (Novabiochem, Switzerland) as substrate and 50nM (final concentration) of enzyme. The appearance of the 7-amino-4 methylcoumarin product was recorded continuously with a Perkin Elmer 650-10S spectrofluorimeter, a SPEX Fluorolog 1680, or SLM 8000C fluorescence spectrometer with excitation at 370 nm and emission at 460 nm.
Typically, 5 μL of the substrate solution (50 mM stock in DMSO) was added to 1 mL of buffer. Varying concentrations of the inhibitor solution (10 μL of a DMSO […] solution) were added, followed by 10 μL of calpain in the assay buffer. After allowing the reaction mixture to incubate for 2-5 min, during which time a steady baseline level of fluorescence was measured, calcium was added in a 10-μL volume to initiate hydrolysis of the fluorogenic substrate, and the resulting increase in fluorescence was monitored continuously. When inhibitors were tested at very low concentrations, the enzyme concentration was reduced to maintain a minimum of a 10-fold excess of inhibitor over enzyme.

[2] = target: Cathepsin B (Homo sapiens, UniProt P07858); assay: Cathepsin B inactivation rate, fluorimetric progress curves; assay type: biochemical; conditions: second order inactivation rate constant corrected for substrate; pH 5.4, 30° C.
Description: as §1
Cathepsins B and L were preactivated with […] DTT in 50 mM sodium acetate buffer, pH 5.4, 1 mM EDTA for 2 h at 4° C. and assayed in the same buffer with 0.01% Brij [poly(oxyethylene) glycol dodecyl ether]. […] The inhibitors (0.1-1 μM) and substrate were added to the reaction mixture to incubate for 5 min in a cuvette thermostated at 30° C. Then, approximately 0.4 nM and 0.1 nM final concentration of cathepsin B and cathepsin L, respectively, were used to initiate the reaction. […] The progress curves were analyzed over at least 3 half lives to calculate the rate constants of inactivation in accordance with the procedure described by Crawford, C. Mason, R. W., Wilkström, P., and Shaw, E. in an article entitled “The design of peptidyldiazomethane inhibitors to distinguish between the cysteine proteinases calpain II, cathepsin L and cathepsin B.”, Biochem. J. 1988, 253, 751-758, the contents of which are incorporated by reference. The rates of inactivation of various substrates are tabulated hereinbelow.

[3] = target: Cathepsin L (Homo sapiens, UniProt P07711); assay: Cathepsin L inactivation rate, fluorimetric progress curves; assay type: biochemical; conditions: second order inactivation rate constant corrected for substrate; substrate Z-Phe-Arg-AMC; pH 5.4, 30° C.
Description: as §1
Cathepsins B and L were preactivated with […] DTT in 50 mM sodium acetate buffer, pH 5.4, 1 mM EDTA for 2 h at 4° C. and assayed in the same buffer with 0.01% Brij [poly(oxyethylene) glycol dodecyl ether]. 5 μM (final concentration) CBZ-Phe-Arg-AMC was used as substrate for both for cathepsins B and L. The inhibitors (0.1-1 μM) and substrate were added to the reaction mixture to incubate for 5 min in a cuvette thermostated at 30° C. Then, approximately 0.4 nM and 0.1 nM final concentration of cathepsin B and cathepsin L, respectively, were used to initiate the reaction. […] The progress curves were analyzed over at least 3 half lives to calculate the rate constants of inactivation in accordance with the procedure described by Crawford, C. Mason, R. W., Wilkström, P., and Shaw, E. in an article entitled “The design of peptidyldiazomethane inhibitors to distinguish between the cysteine proteinases calpain II, cathepsin L and cathepsin B.”, Biochem. J. 1988, 253, 751-758, the contents of which are incorporated by reference. The rates of inactivation of various substrates are tabulated hereinbelow.

[4] = system: Wistar rats with MCA occlusion; assay: Stroke model, 2 h MCA occlusion, i.v. infusion after reperfusion, infarct volume at 7 days; assay type: in vivo, rat; conditions: 2 h MCA occlusion; for % Hemisphere Infarct Volume (% ± SEM): day 7, control 37 ± 2.6
Description: Male Wistar rat weighing between 270-290 gm are fasted the night prior to surgery. Each rat was then anesthetized with 3.5% halothane, and spontaneously respired with 0.5% halothane in a 2:1 N2O:O2 mixture using a face mask. A normal range of blood gases and pH is maintained during ischemia and reperfusion with the face mask inhalation, as verified by samples taken from a femoral artery PE-50 catheter. Body temperature is maintained constant at 37° C. with a recirculating heating pad and K module with an intrarectal type T thermocouple. The PE-50 catheters are inserted into the femoral artery and vein following induction of anesthesia to obtain the blood gas, glucose and hemoglobin concentrations and to monitor blood pressure.
The right common carotid artery, external carotid artery and internal carotid artery are isolated using microsurgical techniques. A clamp is applied to the common carotid artery and a 4-0 nylon suture with a rounded tip is inserted into the external carotid artery through a small puncture. The clamp on the common carotid artery is removed. The suture is passed distally into the internal carotid artery until it blocks the middle cerebral artery. Two hours after the MCA occlusion, the animal is again anesthetized, and the nylon suture is removed from the internal carotid artery.
Infusion of the inhibitor or vehicle is done by intravenous infusion via the femoral vein.
Syringe pumps were filled under sterile conditions with either isotonic saline/1% DMSO solution as the control or with the concentration of CP-1 or CP-2 indicated in the examples, hereinbelow. The pumps delivered the solution at a rate of 15 μl/min for up to 4 hours.
After anesthesia had been induced in the rat, a catheter was inserted into the femoral vein and tunneled subcutaneously in the posterior neck region. Body temperature was maintained at a constant temperature of 37° C. during surgical procedures. The animals underwent 2 hours of MCA occlusion, and then reperfusion when the suture was withdrawn, and immediately thereafter, the drug was infused for four hours. The animals were killed after a 7-day reperfusion, and the brains were formalin fixed and sliced 6-μm thick into seven coronal sections A-G, and mounted on coated slides. After staining with hematoxylin and eosin, the stroke volume was measured using an image analysis program. The stroke area and the contralateral hemispheric area were calculated by tracing the areas on the computer screen, and the volumes were determined by multiplying the appropriate area by the section interval thickness. The stroke volume is expressed as the percentage of lesion size to the volume of contralateral hemisphere. Statistical analysis was performed using the independent t-test.
CP-1 dissolved in 1% DMSO and isotonic saline was given intravenously to Wistar rats (15 μl/min) at concentrations of 2 μM, 10μM, 50μM and 25μM for 4 hours immediately after reperfusion following two hours of MCA occlusion, in accordance with the procedure described hereinabove. Control animals underwent a similar protocol but they had injected therein 1% DMSO/Saline as the vehicle within four hours. All animals which survived 7 days were sacrificed and the stroke volume calculated. The results are tabulated hereinbelow:
The protocol described hereinabove was repeated with CP-2 used in lieu of CP-1, at doses of 10, 50, 250 and 500 μM.

Chain of Cathepsin L (P07711 114-333, species assumed): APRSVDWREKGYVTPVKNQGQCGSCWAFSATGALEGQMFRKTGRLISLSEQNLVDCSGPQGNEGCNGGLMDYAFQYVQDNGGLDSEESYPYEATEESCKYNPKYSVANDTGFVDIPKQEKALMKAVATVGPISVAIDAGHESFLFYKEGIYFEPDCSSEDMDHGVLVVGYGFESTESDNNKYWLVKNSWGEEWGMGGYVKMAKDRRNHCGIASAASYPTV

Cathepsin B k′2app [2] | Cathepsin L k′2app [3] | Molecule | Calpain k′2app [1] | other results
50 M^−1S^−1 | 190,000 M^−1S^−1 | [N-]=[N+]=CC(=O)C(Cc1ccc([N+](=O)[O-])cc1)NC(=O)C(Cc1ccccc1)NC(=O)OCc1ccccc1 (stereo not drawn) [CBZ-Phe-Phe(pNO2)-CHN2, benzyloxycarbonyl-Phe-Phe (p-N02) -CHN2] (Cbz-Phe-[Phe(4-NO2)]-CHN2; configuration not given here) | – | –
350 M^−1S^−1 | 140,000 M^−1S^−1 | [N-]=[N+]=CC(=O)[C@H](Cc1ccccc1)NC(=O)[C@H](Cc1ccccc1)NC(=O)OCc1ccccc1 [CBZ-Phe-Phe-CHN2, benzyloxycarbonyl-Phe-Phe-CHN2] (Cbz-Phe-Phe-CHN2) | – | –
160 M^−1S^−1 | 60,000 M^−1S^−1 | CC(OC(C)(C)C)C(NC(=O)C(Cc1ccccc1)NC(=O)OCc1ccccc1)C(=O)C=[N+]=[N-] (stereo not drawn) [CBZ-Phe-Thr(OtBu)-CHN2, benzyloxycarbonyl-Phe-Thr(O-t-Bu)-CHN2] | – | –
10 M^−1S^−1 | 200,000 M^−1S^−1 | CC(C)(C)Oc1ccc(CC(NC(=O)C(Cc2ccccc2)NC(=O)OCc2ccccc2)C(=O)C=[N+]=[N-])cc1 (stereo not drawn) [CP-2, benzyloxycarbonyl-Phe-Tyr(OtBu)-CHN2] (Cbz-Phe-Tyr(tBu)-CHN2; configuration not given here) | <10 M^−1S^−1 | % Hemisphere Infarct Volume (% ± SEM) ([4]; 10 μM i.v. 15 μl/min for 4 h after reperfusion): 28 ± 4.6, p > 0.05%; % Hemisphere Infarct Volume (% ± SEM) ([4]; 50 μM i.v. 15 μl/min for 4 h after reperfusion): 35 ± 4.8, p > 0.05%; % Hemisphere Infarct Volume (% ± SEM) ([4]; 250 μM i.v. 15 μl/min for 4 h after reperfusion): 21 ± 4.7, p = 0.01%; % Hemisphere Infarct Volume (% ± SEM) ([4]; 500 μM i.v. 15 μl/min for 4 h after reperfusion): 22 ± 3.5, p = 0.004%; effectiveness in reducing stroke damage ([4]; doses 10, 50, 250 and 500 μM): High doses of CP-2 were effective, but not the lower doses

Continued, molecule first:

Molecule | Cathepsin B k′2app [2] | Cathepsin L k′2app [3] | Calpain k′2app [1] | other results
CC(C)C[C@H](NC(=O)OCc1ccccc1)C(=O)N[C@@H](CC(C)C)C(=O)N[C@@H](Cc1ccc(O)cc1)C(=O)C=[N+]=[N-] [CBZ-Leu-Leu-Tyr-CHN2, benzyloxycarbonyl -Leu-Leu-Tyr-CHN2] (Cbz-Leu-Leu-Tyr-CHN2) | 1,300 M^−1S^−1 | 1,500,000 M^−1S^−1 | 230,000 M^−1S^−1 | –
CSCCC(NC(=O)C(CC(C)C)NC(=O)OCc1ccccc1)C(=O)C=[N+]=[N-] (stereo not drawn) [CBZ-Leu-Met-CHN2, benzyloxycarbonyl-Leu-Met-CHN2] (Cbz-Leu-Met-CHN2; configuration not given here) | 4,060 M^−1S^−1 | 212,000 M^−1S^−1 | – | –
CC(C)CC(NC(=O)OCc1ccccc1)C(=O)NC(Cc1c[nH]c2ccccc12)C(=O)C=[N+]=[N-] (stereo not drawn) [CBZ-Leu-Trp-CHN2, benzyloxycarbonyl-Leu-Trp-CHN2] | <50 M^−1S^−1 | 12,000 M^−1S^−1 | – | –
CC(C)CC(NC(=O)OCc1ccccc1)C(=O)NC(Cc1ccc(O)cc1)C(=O)C=[N+]=[N-] (stereo not drawn) [CBZ-Leu-Tyr-CHN2, benzyloxycarbonyl-Leu-Tyr-CHN2] (Cbz-Leu-Tyr-CHN2; configuration not given here) | <50 M^−1S^−1 | 1,500,000 M^−1S^−1 | 1,470 M^−1S^−1 | –
CC(NC(=O)C(Cc1ccc(I)cc1)NC(=O)OCc1ccccc1)C(=O)C=[N+]=[N-] (stereo not drawn) [CBZ-Phe(I)-Ala-CHN2, benzyloxycarbonyl-Phe (I) -Ala-CHN2] | 980 M^−1S^−1 | 130,000 M^−1S^−1 | – | –
[N-]=[N+]=CC(=O)C(CCCNC(N)=O)NC(=O)C(Cc1ccccc1)NC(=O)OCc1ccccc1 (stereo not drawn) [CBZ-Phe-Cit-CHN2, benzyloxycarbonyl-Phe-Cit-CHN2] (Cbz-Phe-[Cit]-CHN2; configuration not given here) | 6,700 M^−1S^−1 | 1,800,000 M^−1S^−1 | – | –
[N-]=[N+]=CC(=O)C(CSCc1ccccc1)NC(=O)C(Cc1ccccc1)NC(=O)OCc1ccccc1 (stereo not drawn) [CBZ-Phe-Cys(SBnz1)-CHN2, benzyloxycarbonyl-Phe-Cys-(SBz)-CHN2] (Cbz-Phe-Cys(Bn)-CHN2; configuration not given here) | 30,000 M^−1S^−1 | 390,000 M^−1S^−1 | – | –
benzyloxycarbonyl-Phe-Ala-CHN2 [CBZ-Phe-Ala-CHN2] | 1,200 M^−1S^−1 | 160,000 M^−1S^−1 | <5 M^−1S^−1 | –
